This passage reports IC50 and EC50 results from patent publication US20240043417A1, “COMPOUNDS FOR THE TREATMENT OF SARS” (Purdue Research Foundation, priority 2020, published 2024).

Read-outs that look alike come from different tables or passages of the source. Bounds are passed on as bounds.

One assay concerns the target SARS-CoV-2 3CLpro (Severe acute respiratory syndrome coronavirus 2 (2019-nCoV) (SARS-CoV-2), UniProt P0DTD1). The assay can be described thus: SARS-CoV-2 3CLpro enzyme inhibition assay. The format is biochemical.
For a further assay, the system named is SARS-CoV-2. Description: microbe, parasite or virus in culture. Particulars: Severe acute respiratory syndrome coronavirus 2; read-out: Antiviral EC50 Data. The format is cell-based.
Setting [1] is: SARS-CoV-2 3CLpro, 10 minutes pre-incubation of enzyme with compound, read-out: Enzyme IC50 Data.

Regarding `CC(C)(C)NC(=O)N[C@H](C(=O)N1C[C@H]2[C@@H]([C@H]1C(=O)N[C@@H](C[C@@H]1CCNC1=O)C(=O)C(=O)NCc1ccccc1)C2(C)C)C(C)(C)C`, the 50% inhibitory concentration (IC50) (in general, the concentration that gives 50% inhibition) against SARS-CoV-2 3CLpro fell in the range of 50 to 100 µM. Further, the half-maximal effective concentration (EC50) (in general, the concentration giving half of the maximal effect) in the assay with SARS-CoV-2 was greater than 100 µM.

Take `CCCN(CCC)[C@@H]1C[C@@H](C(=O)N[C@@H](C[C@H]2CCNC2=O)C(=O)c2nc(-c3ccccc3)cs2)N(C(=O)[C@@H](NC(=O)NC(C)(C)C)C(C)(C)C)C1`: the half-maximal inhibitory concentration (IC50) at SARS-CoV-2 3CLpro (setting [1]) was in the range of 0.1 to 5 µM.

In turn, `CCCC(=O)N[C@@H]1C[C@@H](C(=O)N[C@@H](C[C@H]2CCNC2=O)C(=O)c2nc3ccccc3s2)N(C(=O)[C@@H](NC(=O)OC(C)(C)C)C(C)(C)C)C1` displayed an IC50 on SARS-CoV-2 3CLpro of 0.1 to 5 µM. Further, the 50% effective concentration (EC50) in the assay on SARS-CoV-2 is greater than 100 µM.

Consider `CC(C)(C)NC(=O)N[C@H](C(=O)N1C[C@H](N2CCOCC2)C[C@H]1C(=O)N[C@@H](C[C@H]1CCNC1=O)C(=O)c1nc2ccccc2s1)C(C)(C)C`, for which, at SARS-CoV-2 3CLpro (setting [1]), the half-inhibitory concentration (IC50) lay in the range of 0.1 to 5 µM.

As for `CC(C)(C)NC(=O)N[C@H](C(=O)N1C[C@H]2[C@@H]([C@H]1C(=O)N[C@@H](C[C@@H]1CCNC1=O)C(=O)c1nc3ccccc3s1)C2(C)C)C(C)(C)C`, the half-maximal inhibitory concentration (IC50) against SARS-CoV-2 3CLpro fell in the range of 50 to 100 µM. The concentration for a half-maximal effect (EC50) in the assay on SARS-CoV-2 lay within 5 to 50 µM.

The compound `CCCO[C@@H]1C[C@@H](C(=O)N[C@@H](CC2CCNC2=O)C(=O)c2nc3ccccc3s2)N(C(=O)C(NC(=O)NC(C)(C)C)C(C)C)C1` (some centres unmarked) yielded a concentration for half-maximal inhibition (IC50) on SARS-CoV-2 3CLpro of 0.1 to 5 µM. Also, the EC50 with SARS-CoV-2 lay in the range of 50 to 100 µM.

On to `CCCO[C@@H]1C[C@@H](C(=O)N[C@@H](C[C@@H]2CCNC2=O)C(=O)c2nc3ccccc3s2)N(C(=O)[C@@H](NC(=O)OC(C)(C)C)C(C)(C)C)C1` [drawing 100], for which the half-inhibitory concentration (IC50) on SARS-CoV-2 3CLpro (read-out: Enzyme IC50 Data, SARS-CoV-2 3CLpro, 10 minutes pre-incubation of enzyme with compound) is 0.1 to 5 µM.

Compound `CC(C)(C)NC(=O)N[C@H](C(=O)N1C[C@H]2[C@@H]([C@H]1C(=O)N[C@@H](C[C@@H]1CCNC1=O)C(=O)c1nc(-c3ccccc3)cs1)C2(C)C)C(C)(C)C` yielded an IC50 at SARS-CoV-2 3CLpro of 5 to 50 µM. The half-maximal effective concentration (EC50) with SARS-CoV-2 lay in the range of 5 to 50 µM.

On to `CCCO[C@@H]1C[C@@H](C(=O)N[C@@H](C[C@@H]2CCNC2=O)C(=O)c2nc3ccccc3s2)N(C(=O)[C@@H](NC(=O)NC(C)(C)C)C(C)(C)C)C1`, for which, at SARS-CoV-2 3CLpro, the 50% inhibitory concentration (IC50) lay within 0.1 to 5 µM. Besides, the concentration giving a half-maximal response (EC50) in the assay with SARS-CoV-2 is 50 to 100 µM.

Take `CCN(CC)[C@@H]1C[C@@H](C(=O)N[C@@H](C[C@@H]2CCNC2=O)C(=O)c2nc(-c3ccccc3)cs2)N(C(=O)[C@@H](NC(=O)NC(C)(C)C)C(C)(C)C)C1`: the 50% inhibitory concentration (IC50) on SARS-CoV-2 3CLpro (setting [1]) was 0.1 to 5 µM.

Consider `CCCO[C@@H]1C[C@@H](C(=O)N[C@@H](C[C@@H]2CCNC2=O)C(=O)c2nc(-c3ccccc3)cs2)N(C(=O)[C@@H](NC(=O)NC(C)(C)C)C(C)(C)C)C1`, for which the half-maximal inhibitory concentration (IC50) at SARS-CoV-2 3CLpro (setting [1]) is greater than 100 µM. For the same compound, the EC50 in the assay on SARS-CoV-2 fell in the range of 5 to 50 µM.

For `CCCO[C@@H]1C[C@@H](C(=O)NC(C#N)C[C@@H]2CCNC2=O)N(C(=O)[C@@H](NC(=O)NC(C)(C)C)C(C)(C)C)C1` (some centres unmarked), the half-inhibitory concentration (IC50) on SARS-CoV-2 3CLpro was 50 to 100 µM. In addition, the half-maximal effective concentration (EC50) with SARS-CoV-2 was greater than 100 µM.

As for `CC(C)(C)NC(=O)N[C@H](C(=O)N1C[C@H]2[C@@H]([C@H]1C(=O)N[C@@H](C[C@@H]1CCNC1=O)C(=O)c1nc(-c3ccccc3)co1)C2(C)C)C(C)(C)C`, the IC50 at SARS-CoV-2 3CLpro (setting [1]) fell in the range of 50 to 100 µM.

`CC(C)(C)NC(=O)N[C@H](C(=O)N1C[C@H](N2CCCC2)C[C@H]1C(=O)N[C@@H](C[C@H]1CCNC1=O)C(=O)c1nc2ccccc2s1)C(C)(C)C` yielded a half-maximal inhibitory concentration (IC50) on SARS-CoV-2 3CLpro of 5 to 50 µM. The concentration for a half-maximal effect (EC50) with SARS-CoV-2 is greater than 100 µM.

On to `CC(C)(C)[C@H](NC(=O)NCc1ccncc1)C(=O)N1C[C@H]2[C@@H]([C@H]1C(=O)N[C@@H](C[C@@H]1CCNC1=O)C(=O)c1nc(-c3ccccc3)cs1)C2(C)C`, for which, at SARS-CoV-2 3CLpro (setting [1]), the IC50 was in the range of 0.1 to 5 µM.

For `CC(C)(C)[C@H](NC(=O)c1ccccc1)C(=O)N1C[C@H]2[C@@H]([C@H]1C(=O)N[C@H](C#N)C[C@@H]1CCNC1=O)C2(C)C`, in the assay with SARS-CoV-2, the EC50 fell in the range of 50 to 100 µM.

In the case of `CC(C)(C)NC(=O)N[C@H](C(=O)N1C[C@H]2[C@@H]([C@H]1C(=O)N[C@@H](C[C@@H]1CCNC1=O)C(=O)C(N)=O)C2(C)C)C(C)(C)C`, in the assay with SARS-CoV-2, the concentration for a half-maximal effect (EC50) was greater than 100 µM.

Take `CC(C)(C)NC(=O)N[C@H](C(=O)N1C[C@H]2[C@@H]([C@H]1C(=O)NC(C#N)C[C@@H]1CCNC1=O)C2(C)C)C(C)(C)C` (some centres unmarked): the concentration giving a half-maximal response (EC50) with SARS-CoV-2 was greater than 100 µM.

With `CN(C)[C@@H]1C[C@@H](C(=O)N[C@@H](C[C@@H]2CCNC2=O)C(=O)c2nc(-c3ccccc3)cs2)N(C(=O)[C@@H](NC(=O)NC(C)(C)C)C(C)(C)C)C1`, the IC50 at SARS-CoV-2 3CLpro (setting [1]) was in the range of 0.1 to 5 µM.

Regarding `CC(=O)OC(C#N)[C@H](CC1CCCNC1=O)NC(=O)[C@@H]1[C@@H]2[C@H](CN1C(=O)C(NC(=O)NC(C)(C)C)C(C)(C)C)C2(C)C` (some centres unmarked), the EC50 in the assay on SARS-CoV-2 is greater than 100 µM.

On to `CCCO[C@@H]1C[C@@H](C(=O)N[C@@H](C[C@@H]2CCNC2=O)C(=O)c2nc3ccccc3s2)N(C(=O)[C@@H](NC(=O)OC(C)(C)C)C(C)(C)C)C1` [drawing 99], for which the IC50 at SARS-CoV-2 3CLpro lay in the range of 0.1 to 5 µM. In the assay with SARS-CoV-2, the EC50 is 0.1 to 5 µM.

Turning to `CCCN(CCC)[C@@H]1C[C@@H](C(=O)NC(C#N)C[C@@H]2CCNC2=O)N(C(=O)[C@@H](NC(=O)OC(C)(C)C)C(C)(C)C)C1` (some centres unmarked), the 50% inhibitory concentration (IC50) at SARS-CoV-2 3CLpro (setting [1]) is greater than 100 µM. Further, the concentration for a half-maximal effect (EC50) in the assay on SARS-CoV-2 fell in the range of 5 to 50 µM.

For `CCCN(CCC)[C@@H]1C[C@@H](C(=O)N[C@@H](C[C@H]2CCNC2=O)C(=O)c2nc3ccccc3s2)N(C(=O)[C@@H](NC(=O)NC(C)(C)C)C(C)(C)C)C1`, at SARS-CoV-2 3CLpro (setting [1]), the IC50 was greater than 100 µM. The EC50 in the assay on SARS-CoV-2 is 5 to 50 µM.

Compound `CCCN(CCC)[C@@H]1C[C@@H](C(=O)NC(C#N)C[C@@H]2CCNC2=O)N(C(=O)[C@@H](NC(=O)C(F)(F)F)C(C)(C)C)C1` (some centres unmarked) returned an IC50 against SARS-CoV-2 3CLpro greater than 100 µM. Also, in the assay with SARS-CoV-2, the EC50 was greater than 100 µM.

As for `CCCC(=O)N[C@@H]1C[C@@H](C(=O)N[C@@H](C[C@H]2CCNC2=O)C(=O)c2nc3ccccc3s2)N(C(=O)[C@@H](NC(=O)NC(C)(C)C)C(C)(C)C)C1`, the IC50 on SARS-CoV-2 3CLpro was 0.1 to 5 µM. Also, the EC50 in the assay on SARS-CoV-2 is greater than 100 µM.

As to `CCCN(CCC)[C@@H]1C[C@@H](C(=O)N[C@@H](C[C@H]2CCNC2=O)C(=O)c2nc3ccccc3s2)N(C(=O)[C@@H](NC(=O)OC(C)(C)C)C(C)(C)C)C1`, the IC50 on SARS-CoV-2 3CLpro was in the range of 0.1 to 5 µM. Moreover, the EC50 in the assay on SARS-CoV-2 was 5 to 50 µM.
